Values joined by “and” are separate entries in the source; they are usually repeats but may differ in a detail not shown here. Equal values may be shown once. Read-outs that look alike come from different tables or passages of the source.
Experiments:
MRSA SA5120 biofilms = assay type: cell-based, Staphylococcus aureus
Experimental: (§1) Two MDR clinical wound isolates, namely, methicillin-resistant S. aureus (MRSA) SA5120 and P. aeruginosa PA 60-65, were received as gifts from a repository at the U.S. Army Institute of Surgical Research (JBSA-Fort Sam Houston, Tex.). Biofilms were established on 5-mm glass discs or in 96-well half-area glass-bottom plates that had been pre-treated for 24 h with 1 mg/mL of fibrinogen. Overnight cultures of SA5120 in tryptic soy broth (TSB) were diluted to an optical density at 600 nm (OD600) of 0.1 using TSB supplemented with 10% human plasma, added to empty wells of a 96-well glass-bottom culture plate or to wells containing 5-mm glass discs, and allowed to grow into biofilms for 24 h at 37° C. under static conditions. For PA 60-65, overnight cultures in brain heart infusion broth (BHI) were diluted 20-fold using 20% BHI in phosphate-buffered saline (PBS) supplemented with 0.2% glucose and 0.4% NaCl and grown to an OD600 of 0.5 at 37° C. with shaking at 250 rpm. The bacterial suspension was diluted to an OD600 of 0.01 in PBS, and 20 μL of inoculant was spotted onto 5-mm glass discs placed in 6-well tissue culture plates. Samples were incubated at room temperature for 2 h to allow cell attachment, rinsed in PBS, and then cultured in 20% BHI/0.2% glucose/0.4% NaCl in PBS for 72 h at 37° C. with shaking at 140 rpm. Biofilms were rinsed in PBS and transferred into 96-well glass-bottom plates for subsequent treatment.
MRSA biofilms in 96-well glass-bottom plates or on 5-mm glass discs were pre-treated with increasing concentrations of tGNPs from 0-100 μg/mL in PBS for 2 h. This 2-h treatment duration was selected based upon results from comparison of the extent of biofilm dispersion caused by different tGNP incubation periods used in combination with laser irradiation (FIG. 9). Following the tGNP pre-treatment, unattached tGNPs were washed away using PBS, and 40 μL of PBS was added to the wells. Biofilms were then irradiated with increasing numbers of laser pulses from 0-100 pulses at 532 nm and a fluence of ˜1.0 J/cm^2 using an Nd:YAG laser system (8-ns pulse, 1 Hz; Quantel, Bozeman, Mont.) and an automated XY-gantry sample positioning system operated through LabVIEW software (National Instruments, Austin, Tex.). After exposure, samples were analyzed using confocal microscopy or colony forming unit (CFU) assays.
Biofilms grown on glass discs were pre-treated with tGNPs or non-targeted GNPs at 70 μg/mL in PBS for 2 h (SA5120) or 1 h (PA 60-65). The 1-h pre-treatment period for PA 60-65 was selected based upon results from comparison of biofilm dispersion caused by various tGNP incubation times used in combination with laser irradiation (FIG. 10). Following the tGNP pre-treatment, samples were rinsed using PBS, and 40 μL of PBS was added to each well. Biofilms were then exposed to 50 laser pulses at 532 nm or sham exposed as described in Supplementary Materials. Biofilms treated with 50 laser pulses alone or PBS alone (controls) were also included. […] After treatment, samples were analyzed using confocal microscopy, CFU assays, or scanning electron microscopy (SEM).
Biofilms on glass discs were pre-treated with tGNPs at 70 μg/mL in PBS for 2 h (SA5120) or 1 h (PA 60-65). Samples were rinsed with PBS, 40 μL of PBS was added to each well, and biofilms were then exposed to 50 laser pulses at 532 nm or sham exposed. Biofilms treated with 50 laser pulses alone or PBS alone were also included. […]

[1] = test system: planktonic MRSA SA5120 cultures; test: CFU assay of planktonic MRSA SA5120 cultures; assay type: cell-based, Staphylococcus aureus; conditions: for reduction in viability of planktonic MRSA cultures (CFU): antibiotic alone, 24 h (vancomycin 100 μg/mL)
Experimental: For planktonic bacteria, broth cultures of SA5120 in TSB and PA 60-65 in BHI were grown for 16-18 h at 37° C. on a shaker at 250 rpm. The cultures were diluted to an OD600 of 0.1 using TSB for SA5120 or BHI for PA 60-65 and incubated at 37° C. for ˜1.5 h to reach an OD600 of 0.3. […] The cell pellets were washed twice in PBS, re-suspended in 1 mL of PBS, serially diluted in PBS, and plated in triplicate on TSA plates. The plates were incubated overnight at 37° C., and the resulting colonies were enumerated and used to calculate CFUs/mL.

[2] = test system: Staphylococcus epidermidis biofilm; conditions: ns-pulsed laser non-thermal shockwaves combined with 24-h gentamicin treatment; cited from earlier work
[3] = test system: planktonic P. aeruginosa PA 60-65 cultures; test: CFU assay of planktonic P. aeruginosa PA 60-65 cultures; assay type: cell-based, Pseudomonas aeruginosa; conditions: amikacin 24 h (16-64 μg/mL)
Experimental: For planktonic bacteria, broth cultures of SA5120 in TSB and PA 60-65 in BHI were grown for 16-18 h at 37° C. on a shaker at 250 rpm. The cultures were diluted to an OD600 of 0.1 using TSB for SA5120 or BHI for PA 60-65 and incubated at 37° C. for ˜1.5 h to reach an OD600 of 0.3. Samples were treated with antibiotics in triplicate in 5-mL tubes at 37° C. on a shaker at 250 rpm for 24 h, after which 1 mL of culture from each tube was transferred into a fresh tube and centrifuged to pellet the cells. The cell pellets were washed twice in PBS, re-suspended in 1 mL of PBS, serially diluted in PBS, and plated in triplicate on TSA plates. The plates were incubated overnight at 37° C., and the resulting colonies were enumerated and used to calculate CFUs/mL.

[4] = test system: P. aeruginosa PA 60-65 biofilms; test: CFU assay of P. aeruginosa PA 60-65 biofilms; assay type: cell-based, Pseudomonas aeruginosa; conditions: for reduction in P. aeruginosa biofilm viability (CFU): 24 h
Experimental: as §1
Biofilms grown on glass discs were pre-treated with tGNPs or non-targeted GNPs at 70 μg/mL in PBS for 2 h (SA5120) or 1 h (PA 60-65). The 1-h pre-treatment period for PA 60-65 was selected based upon results from comparison of biofilm dispersion caused by various tGNP incubation times used in combination with laser irradiation (FIG. 10). […] After treatment, samples were analyzed using confocal microscopy, CFU assays, or scanning electron microscopy (SEM).
Biofilms on glass discs were pre-treated with tGNPs at 70 μg/mL in PBS for 2 h (SA5120) or 1 h (PA 60-65). […] Samples were incubated for 24 h at 37° C. and then analyzed using CFU assays or SEM. […]

[5] = GNP-targeted laser therapy followed by 24-h antibiotic treatment at 100 μg/mL

gentamicin
reduction in MRSA biofilm viability (CFU) (MRSA SA5120 biofilms; [5]): 4 log
reduction in viable bacteria in MRSA biofilms (MRSA SA5120 biofilms; GNP-targeted laser therapy followed by 24-h gentamicin at 100 μg/mL): 99.99%
reduction in MRSA biofilm viability (CFU) (MRSA SA5120 biofilms; antibiotic alone, 100 μg/mL, 24 h): 1 log
reduction in viability of planktonic MRSA cultures (CFU) [1]: ~4 log
reduction in Staphylococcus epidermidis biofilm viability [2]: 1 log

CN[C@H](CC(C)C)C(=O)N[C@H]1C(=O)N[C@@H](CC(N)=O)C(=O)N[C@H]2C(=O)N[C@H]3C(=O)N[C@H](C(=O)N[C@H](C(=O)O)c4cc(O)cc(O)c4-c4cc3ccc4O)[C@H](O)c3ccc(c(Cl)c3)Oc3cc2cc(c3O[C@@H]2O[C@H](CO)[C@@H](O)[C@H](O)[C@H]2O[C@H]2C[C@](C)(N)[C@H](O)[C@H](C)O2)Oc2ccc(cc2Cl)[C@H]1O [vancomycin, Vancomycin]
effect of GNP-targeted laser therapy on antibacterial activity of vancomycin against MRSA biofilms (MRSA SA5120 biofilms; 24-h vancomycin at 100 or 1000 μg/mL): enhanced the antibacterial activity
reduction in MRSA biofilm viability (CFU) (MRSA SA5120 biofilms; [5]): 2 log
reduction in viability of planktonic MRSA cultures (CFU) [1]: 4 log and ~3 log

NCC[C@H](O)C(=O)N[C@@H]1C[C@H](N)[C@@H](O[C@H]2O[C@H](CN)[C@@H](O)[C@H](O)[C@H]2O)[C@H](O)[C@H]1O[C@H]1O[C@H](CO)[C@@H](O)[C@H](N)[C@H]1O [amikacin]
reduction in viability of planktonic P. aeruginosa cultures (CFU) [3]: ~4 log
reduction in P. aeruginosa biofilm viability (CFU) ([4]; GNP-targeted laser therapy in combination with 8 μg/mL amikacin): 5 log
effect of increasing amikacin from 8 to 16 μg/mL in the combination therapy ([4]; P. aeruginosa biofilms, with GNP-targeted laser therapy): did not further reduce cell viability
reduction in P. aeruginosa biofilm viability (CFU) ([4]; amikacin alone, 8 μg/mL): ~1 log

B1: papain: enzyme used to loosen S. aureus biofilms prior to CFU assay (protein, UniProt P00784 134-345, looked up)
Papain: IPEYVDWRQKGAVTPVKNQGSCGSCWAFSAVVTIEGIIKIRTGNLNEYSEQELLDCDRRSYGCNGGYPWSALQLVAQYGIHYRNTYPYEGVQRYCRSREKGPYAAKTDGVRQVQPYNEGALLYSIANQPVSVVLEAAGKDFQLYRGGIFVGPCGNKVDHAVAAVGYGPNYILIKNSWGTGWGENGYIRIKRGTGNSYGVCGLYTSSFYPVKN
viability of planktonic MRSA cultures ([1]; 100 μg/mL papain, 2 or 4 h at 37° C.): no reduction in cell viability
